Experimental data published in patent publication US20120083476A1, “HETEROARYL-SUBSTITUTED SPIROCYCLIC DIAMINE UREA MODULATORS OF FATTY ACID AMIDE HYDROLASE” (Janssen Pharmaceutica NV, priority 2009, published 2012).
Where a name gives a salt, the structure may show the parent alone. Read-outs that look alike come from different tables or passages of the source.

Assays:
Rat FAAH = target: T1, Rat FAAH (Rattus norvegicus, UniProt P97612); assay: Assay Method 2: rat FAAH assay (3H-anandamide hydrolysis in cell homogenate); type: biochemical
T1 construct: expressed in transfected cells; host or cells: SK-N-MC cells stably transfected with rat FAAH cDNA (G418 selection)
T1 sequence (P97612 1-579): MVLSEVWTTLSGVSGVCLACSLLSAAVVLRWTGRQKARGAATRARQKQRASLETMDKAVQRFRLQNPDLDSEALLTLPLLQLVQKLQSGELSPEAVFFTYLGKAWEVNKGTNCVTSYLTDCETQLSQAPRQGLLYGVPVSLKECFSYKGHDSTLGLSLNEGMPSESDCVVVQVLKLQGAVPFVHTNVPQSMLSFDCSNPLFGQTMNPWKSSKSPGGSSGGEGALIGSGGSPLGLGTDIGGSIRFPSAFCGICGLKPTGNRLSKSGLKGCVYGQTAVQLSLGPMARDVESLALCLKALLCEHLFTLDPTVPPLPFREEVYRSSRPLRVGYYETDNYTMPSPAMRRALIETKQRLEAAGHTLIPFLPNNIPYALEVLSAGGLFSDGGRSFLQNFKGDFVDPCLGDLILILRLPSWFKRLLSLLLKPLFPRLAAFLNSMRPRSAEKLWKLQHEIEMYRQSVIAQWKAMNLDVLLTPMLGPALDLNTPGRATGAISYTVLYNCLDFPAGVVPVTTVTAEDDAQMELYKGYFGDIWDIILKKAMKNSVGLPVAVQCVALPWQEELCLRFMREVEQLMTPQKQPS
How it was run: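 Homogenates of T84 cells or SK-N-MC cells stably transfected with rat FAAH, in pH 9 Tris/EDTA/glycerol/Triton buffer, incubated 1 h at room temperature with 3H-anandamide. Released labeled ethanolamine separated from substrate on activated charcoal and counted by scintillation; values averaged over runs.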

FAAH = target: T2, FAAH (Homo sapiens, UniProt O00519); assay: Assay Method 1: human FAAH assay (3H-anandamide hydrolysis in cell homogenate); type: biochemical; parameters: expressed in transfected cells; host or cells: SK-N-MC cells stably transfected with human FAAH cDNA (G418 selection); alternatively T84 cell pellets
T2 sequence (O00519 1-579): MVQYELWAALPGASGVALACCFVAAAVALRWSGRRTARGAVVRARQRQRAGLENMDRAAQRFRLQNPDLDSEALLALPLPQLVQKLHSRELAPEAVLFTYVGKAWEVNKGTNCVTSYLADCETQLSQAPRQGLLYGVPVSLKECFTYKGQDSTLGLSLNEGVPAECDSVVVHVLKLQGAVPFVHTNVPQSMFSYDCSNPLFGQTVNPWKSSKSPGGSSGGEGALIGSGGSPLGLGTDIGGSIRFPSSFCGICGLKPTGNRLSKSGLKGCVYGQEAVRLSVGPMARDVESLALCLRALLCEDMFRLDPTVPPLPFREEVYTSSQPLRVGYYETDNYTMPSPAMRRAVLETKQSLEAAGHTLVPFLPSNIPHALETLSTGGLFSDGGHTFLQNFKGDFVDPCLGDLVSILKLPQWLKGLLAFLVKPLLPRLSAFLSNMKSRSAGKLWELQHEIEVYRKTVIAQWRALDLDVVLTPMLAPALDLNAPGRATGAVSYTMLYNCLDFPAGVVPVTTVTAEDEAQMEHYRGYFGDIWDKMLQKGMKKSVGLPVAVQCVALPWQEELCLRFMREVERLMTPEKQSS
How it was run: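 Homogenates of T84 cells or SK-N-MC cells stably transfected with human FAAH, in pH 9 Tris/EDTA buffer with 0.02% Triton X-100. Incubated 1 h at rt with compound and 80 nM (final) [3H-ethanolamine]-anandamide. Released 3H-ethanolamine separated on charcoal filters and counted by scintillation.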

SMILES | IC50 (Rat FAAH; read-out: Assay 2 IC50) | IC50 (FAAH; read-out: Assay 1 IC50) | IC50 (Rat FAAH) | IC50 (FAAH)
O=C(Nc1ccnc(C(F)(F)F)n1)N1CC2(CCN(Cc3cccc(Oc4ccc(Cl)cc4)c3)CC2)C1 [Example 71, 7-[3-(4-Chloro-phenoxy)-benzyl]-2,7-diaza-spiro[3.5]nonane-2-carboxylic acid (2-trifluoromethyl-pyrimidin-4-yl)-amide, trifluoroacetic acid salt] | 5 µM | > 10 µM | – | –
O=C(Nc1cccnn1)N1CC2(CCN(Cc3cccc(Oc4ccc(Cl)cc4)c3)CC2)C1 [Example 44, 7-[3-(4-Chloro-phenoxy)-benzyl]-2,7-diaza-spiro[3.5]nonane-2-carboxylic acid pyridazin-3-ylamide, trifluoroacetic acid salt] | – | 0.43 µM | 0.26 µM | –
O=C(Nc1ccc(-n2nccn2)nc1)N1CCC2(CCN(Cc3cccc(Oc4ccc(Cl)cc4)c3)CC2)CC1 [Example 14, 9-[3-(4-Chloro-phenoxy)-benzyl]-3,9-diaza-spiro[5.5]undecane-3-carboxylic acid (6-[1,2,3]triazol-2-yl-pyridin-3-yl)-amide] | 0.05 µM | 0.03 µM | – | –
O=C(Nc1cccnc1)N1CC2(CCN(Cc3cccc(Oc4cccc(Br)c4)c3)CC2)C1 [Example 122, 7-[3-(3-Bromo-phenoxy)-benzyl]-2,7-diaza-spiro[3.5]nonane-2-carboxylic acid pyridin-3-ylamide] | 1 µM | 0.05 µM | – | –
O=C(Nc1cccnc1)N1CCC2(CCN(Cc3cccc(Oc4ccc(Cl)cc4)c3)CC2)C1 [Example 90, 8-[3-(4-Chloro-phenoxy)-benzyl]-2,8-diaza-spiro[4.5]decane-2-carboxylic acid pyridin-3-ylamide, trifluoroacetic acid salt] | – | – | 0.43 µM | 2 µM
O=C(Nc1ccnc2[nH]ccc12)N1CC2(CCN(Cc3cccc(Oc4ccc(Cl)cc4)c3)CC2)C1 [Example 74, 7-[3-(4-Chloro-phenoxy)-benzyl]-2,7-diaza-spiro[3.5]nonane-2-carboxylic acid (1H-pyrrolo[2,3-b]pyridin-4-yl)-amide, trifluoroacetic acid salt] | 2 µM | > 10 µM | – | –
O=C(Nc1noc2cccnc12)N1CC2(CCN(Cc3cccc(Oc4ccc(Cl)cc4)c3)CC2)C1 [Example 67, 7-[3-(4-Chloro-phenoxy)-benzyl]-2,7-diaza-spiro[3.5]nonane-2-carboxylic acid isoxazolo[4,5-b]pyridin-3-ylamide, trifluoroacetic acid salt] | 0.01 µM | 0.16 µM | – | –
O=C(Nc1ccc(-n2nccn2)nc1)N1CCC2(CCN(Cc3cccc(Oc4ccc(Cl)cc4)c3)CC2)C1 [Example 19, N-(6-(2H-1,2,3-triazol-2-yl)pyridin-3-yl)-8-(3-(4-chlorophenoxy)benzyl)-2,8-diazaspiro[4.5]decane-2-carboxamide] | 0.7 µM | 1 µM | – | –
COc1nccc(NC(=O)N2CC3(CCN(Cc4cccc(Oc5ccc(Cl)cc5)c4)CC3)C2)n1 [Example 72, 7-[3-(4-Chloro-phenoxy)-benzyl]-2,7-diaza-spiro[3.5]nonane-2-carboxylic acid (2-methoxy-pyrimidin-4-yl)-amide, trifluoroacetic acid salt] | 0.06 µM | 1.7 µM | – | –
O=C(Nc1cccnc1Cl)N1CC2(CCN(Cc3cccc(Oc4ccc(Cl)cc4)c3)CC2)C1 [Example 54, 7-[3-(4-Chloro-phenoxy)-benzyl]-2,7-diaza-spiro[3.5]nonane-2-carboxylic acid (2-chloro-pyridin-3-yl)-amide, trifluoroacetic acid salt] | 0.19 µM | 0.17 µM | – | –
O=C(Nc1cccnc1)N1CCC2(CCN(Cc3cccc(Oc4ccc(Cl)cc4)c3)CC2)C1 [Example 18, 8-(3-(4-chlorophenoxy)benzyl)-N-(pyridin-3-yl)-2,8-diazaspiro[4.5]decane-2-carboxamide] | – | – | 5 µM | > 10 µM
COc1cc(NC(=O)N2CC3(CCN(Cc4cccc(Oc5ccc(Cl)cc5)c4)CC3)C2)ncn1 [Example 59, 7-[3-(4-Chloro-phenoxy)-benzyl]-2,7-diaza-spiro[3.5]nonane-2-carboxylic acid (6-methoxy-pyrimidin-4-yl)-amide, trifluoroacetic acid salt] | 0.08 µM | 0.25 µM | – | –
O=C(Nc1ccc(-n2nccn2)nc1)N1CCC2(CC1)CN(Cc1cccc(Oc3ccc(Cl)cc3)c1)C2 [Example 6] | 0.02 µM | 0.01 µM | – | –
O=C(Nc1noc2ccccc12)N1CCC2(CCN(Cc3cccc(Oc4ccc(Cl)cc4)c3)C2)CC1 [Example 2, 2-[3-(4-Chloro-phenoxy)-benzyl]-2,8-diaza-spiro[4.5]decane-8 carboxylic acid benzo[d]isoxazol-3-ylamide] | 0.01 µM | 0.13 µM | – | –
O=C(Nc1cccnc1)N1CC2(CCN(Cc3cccc(Oc4ccc(F)c(C(F)(F)F)c4)c3)CC2)C1 [Example 113, 7-(3-(4-fluoro-3-(trifluoromethyl)phenoxy)benzyl)-N-(pyridin-3-yl)-2,7-diazaspiro[3.5]nonane-2-carboxamide] | 5 µM | 0.56 µM | – | –

Second part, led by results:

IC50 (Rat FAAH; read-out: Assay 2 IC50) | IC50 (FAAH; read-out: Assay 1 IC50) | SMILES | IC50 (Rat FAAH) | IC50 (FAAH)
0.5 µM | 1.45 µM | CCn1nccc1NC(=O)N1CC2(CCN(Cc3cccc(Oc4ccc(Cl)cc4)c3)CC2)C1 [Example 63, 7-[3-(4-Chloro-phenoxy)-benzyl]-2,7-diaza-spiro[3.5]nonane-2-carboxylic acid (2-ethyl-2H-pyrazol-3-yl)-amide, trifluoroacetic acid salt] | – | –
> 10 µM | 8 µM | O=C(Nc1cccnc1)N1CC2(CCN(Cc3ccc4ccccc4c3O)CC2)C1 [Example 108, 7-((1-hydroxynaphthalen-2-yl)methyl)-N-(pyridin-3-yl)-2,7-diazaspiro[3.5]nonane-2-carboxamide] | – | –
0.34 µM | 0.05 µM | O=C(Nc1cccnc1)N1CCC2(CCN(Cc3cccc(Oc4ccc(Cl)cc4)c3)C2)CC1 [Example 3, 2-[3-(4-Chloro-phenoxy)-benzyl]-2,8-diaza-spiro[4.5]decane-8-carboxylic acid pyridin-3-ylamide] | – | –
> 10 µM | > 10 µM | Cc1cc(NC(=O)N2CC3(CCN(Cc4cccc(Oc5ccc(Cl)cc5)c4)CC3)C2)no1 [Example 76, 7-(3-(4-chlorophenoxy)benzyl)-N-(5-methylisoxazol-3-yl)-2,7-diazaspiro[3.5]nonane-2-carboxamide, trifluoroacetic acid salt] | – | –
0.6 µM | 0.16 µM | O=C(Nc1cccnc1)N1CC2(CCN(Cc3cccc(Oc4ccc5c(c4)OC(F)(F)O5)c3)CC2)C1 [Example 118, 7-[3-(2,2-Difluoro-benzo[1,3]-dioxol-5-yloxy)-benzyl]-2,7-diaza-spiro[3.5]nonane-2-carboxylic acid pyridin-3-ylamide] | – | –
8 µM | 1.5 µM | O=C(Nc1ccc(Cl)nc1)N1CC2(CCN(Cc3cccc(Oc4ccc(Cl)cc4)c3)CC2)C1 [Example 48, 7-[3-(4-Chloro-phenoxy)-benzyl]-2,7-diaza-spiro[3.5]nonane-2-carboxylic acid (6-chloro-pyridin-3-yl)-amide, trifluoroacetic acid salt] | – | –
0.4 µM | 0.78 µM | O=C(Nc1cnc2[nH]ccc2c1)N1CCC2(CCCN2Cc2cccc(Oc3ccc(Cl)cc3)c2)CC1 [Example 95, 1-[3-(4-Chloro-phenoxy)-benzyl]-1,8-diaza-spiro[4.5]decane-8-carboxylic acid (1H-pyrrolo[2,3-b]pyridin-5-yl)-amide] | – | –
> 10 µM | 1.3 µM | O=C(Nc1cccnc1)N1CC2(CCN(Cc3ccc(OC(F)(F)F)cc3)CC2)C1 [Example 103, N-(pyridin-3-yl)-7-(4-(trifluoromethoxy)benzyl)-2,7-diazaspiro[3.5]nonane-2-carboxamide] | – | –
